The values that follow come from ChEMBL document CHEMBL5096162, “A review on ferulic acid and analogs based scaffolds for the management of Alzheimer's disease” (Eur J Med Chem, 2021).

Test [1] has as its target T1, Cholinesterase (Equus caballus, UniProt P81908). Nature of the test: Inhibition of equine serum BuchE preincubated for 6 mins followed by substrate addition using butyrylthiocholine iodide as substrate by DTNB reagent based Ellman method.
In test [2] the target is Amyloid-beta precursor protein (Homo sapiens) (UniProt P05067). Nature of the test: Inhibition of self-induced amyloid beta (1 to 42) (unknown origin) aggregation at 20 uM incubated for 46 to 48 hrs in dark by ThT-based fluorimetric assay. The note with it: time 46-48 hrs.
Chain of Amyloid-beta precursor protein (Homo sapiens) (P05067 whole entry): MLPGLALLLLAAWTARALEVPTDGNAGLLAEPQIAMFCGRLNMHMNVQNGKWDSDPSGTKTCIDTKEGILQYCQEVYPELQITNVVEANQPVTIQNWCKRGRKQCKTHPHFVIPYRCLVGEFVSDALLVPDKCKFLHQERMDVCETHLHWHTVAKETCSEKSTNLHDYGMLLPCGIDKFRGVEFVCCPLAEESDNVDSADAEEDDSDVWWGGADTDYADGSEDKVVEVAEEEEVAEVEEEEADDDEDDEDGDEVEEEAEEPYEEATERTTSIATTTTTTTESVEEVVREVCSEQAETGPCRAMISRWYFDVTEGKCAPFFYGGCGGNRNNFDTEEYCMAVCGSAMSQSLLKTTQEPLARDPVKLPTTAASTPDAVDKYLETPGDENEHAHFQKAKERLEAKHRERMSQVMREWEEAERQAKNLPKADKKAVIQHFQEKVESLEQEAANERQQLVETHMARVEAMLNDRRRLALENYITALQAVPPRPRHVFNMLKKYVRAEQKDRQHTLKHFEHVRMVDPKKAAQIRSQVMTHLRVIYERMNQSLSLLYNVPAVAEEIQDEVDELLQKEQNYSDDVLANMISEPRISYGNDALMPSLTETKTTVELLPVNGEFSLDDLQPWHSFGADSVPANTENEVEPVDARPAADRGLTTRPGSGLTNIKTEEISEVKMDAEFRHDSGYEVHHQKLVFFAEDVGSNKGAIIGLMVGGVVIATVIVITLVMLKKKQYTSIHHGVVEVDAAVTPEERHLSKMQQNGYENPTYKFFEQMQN
The target of test [3] is T2, Cholinesterase (Homo sapiens, UniProt P06276).
T2 sequence (P06276 whole entry): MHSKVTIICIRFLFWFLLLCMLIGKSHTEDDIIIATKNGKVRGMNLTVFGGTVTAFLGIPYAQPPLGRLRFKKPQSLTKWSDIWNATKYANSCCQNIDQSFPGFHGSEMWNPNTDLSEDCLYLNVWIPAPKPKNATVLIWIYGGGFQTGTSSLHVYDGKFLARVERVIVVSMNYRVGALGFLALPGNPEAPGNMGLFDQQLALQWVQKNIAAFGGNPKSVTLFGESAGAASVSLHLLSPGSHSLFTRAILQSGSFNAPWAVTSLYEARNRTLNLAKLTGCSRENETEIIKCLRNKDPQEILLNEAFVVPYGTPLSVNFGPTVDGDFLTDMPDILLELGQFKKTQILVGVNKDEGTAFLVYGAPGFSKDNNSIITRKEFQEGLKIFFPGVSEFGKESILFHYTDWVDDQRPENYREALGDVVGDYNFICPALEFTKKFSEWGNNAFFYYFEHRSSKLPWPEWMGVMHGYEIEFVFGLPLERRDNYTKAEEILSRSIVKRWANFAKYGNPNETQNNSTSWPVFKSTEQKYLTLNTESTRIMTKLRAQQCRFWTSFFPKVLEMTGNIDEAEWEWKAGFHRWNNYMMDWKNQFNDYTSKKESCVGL
Description: Inhibition of human BuchE preincubated for 6 mins followed by substrate addition using butyrylthiocholine iodide as substrate by DTNB reagent based Ellman method
Another test concerns PC-12. Nature of the test: Neuroprotective activity against amyloid beta (1 to 42)-induced cytotoxicity in rat PC-12 cells assessed as increase in cell viability at 50 uM preincubated for 2 hrs followed by amyloid beta (1 to 42) stimulation and measured after 24 hrs by MTT assay. In kind it is functional. Particulars: time 26 hrs. (Formazan colour is commonly taken as a measure of viable cells.)

Test [4] addresses T1, Cholinesterase. As to the kind of experiment: Inhibition of equine BuChE incubated for 15 mins using butyrylthiocholine as substrate by Ellman's method. For orientation: DTNB colorimetry detects thiols as they appear.
In test [5] the target is T3, Amine oxidase [flavin-containing] A (Homo sapiens, UniProt P21397).
T3 sequence (P21397 whole entry): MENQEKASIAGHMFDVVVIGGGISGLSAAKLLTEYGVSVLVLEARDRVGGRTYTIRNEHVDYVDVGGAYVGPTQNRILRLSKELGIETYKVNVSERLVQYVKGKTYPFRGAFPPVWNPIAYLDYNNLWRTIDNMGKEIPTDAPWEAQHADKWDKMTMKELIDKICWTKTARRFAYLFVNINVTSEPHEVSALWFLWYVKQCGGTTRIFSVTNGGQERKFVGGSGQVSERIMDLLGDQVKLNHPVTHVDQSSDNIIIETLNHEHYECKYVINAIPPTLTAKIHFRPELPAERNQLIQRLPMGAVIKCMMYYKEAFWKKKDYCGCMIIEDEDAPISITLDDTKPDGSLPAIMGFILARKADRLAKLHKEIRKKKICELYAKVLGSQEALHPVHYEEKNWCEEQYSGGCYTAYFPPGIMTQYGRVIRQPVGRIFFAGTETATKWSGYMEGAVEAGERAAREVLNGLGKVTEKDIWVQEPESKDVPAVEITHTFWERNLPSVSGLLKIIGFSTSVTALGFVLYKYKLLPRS
As to the kind of experiment: Inhibition of recombinant human MAO-A assessed as measuring amount of 4-hydroxyquinoline using kynuramine as substrate incubated for 30 mins by fluorescence spectrophotometry.

The target of test [6] is Amyloid-beta precursor protein (Homo sapiens) (UniProt P05067). Nature of the test: Inhibition of self-induced amyloid beta (1 to 42) (unknown origin) aggregation at 25 uM incubated for 24 hrs in dark by ThT-based fluorimetric assay.
For test [7] the target is unchanged. As to the kind of experiment: Inhibition of self-induced amyloid beta (1 to 42) (unknown origin) aggregation assessed as disaggregation at 25 uM incubated for 24 hrs in dark by ThT-based fluorimetric assay.
Test [8] addresses T4, Amine oxidase [flavin-containing] B (Homo sapiens, UniProt P27338).
T4 sequence (P27338 whole entry): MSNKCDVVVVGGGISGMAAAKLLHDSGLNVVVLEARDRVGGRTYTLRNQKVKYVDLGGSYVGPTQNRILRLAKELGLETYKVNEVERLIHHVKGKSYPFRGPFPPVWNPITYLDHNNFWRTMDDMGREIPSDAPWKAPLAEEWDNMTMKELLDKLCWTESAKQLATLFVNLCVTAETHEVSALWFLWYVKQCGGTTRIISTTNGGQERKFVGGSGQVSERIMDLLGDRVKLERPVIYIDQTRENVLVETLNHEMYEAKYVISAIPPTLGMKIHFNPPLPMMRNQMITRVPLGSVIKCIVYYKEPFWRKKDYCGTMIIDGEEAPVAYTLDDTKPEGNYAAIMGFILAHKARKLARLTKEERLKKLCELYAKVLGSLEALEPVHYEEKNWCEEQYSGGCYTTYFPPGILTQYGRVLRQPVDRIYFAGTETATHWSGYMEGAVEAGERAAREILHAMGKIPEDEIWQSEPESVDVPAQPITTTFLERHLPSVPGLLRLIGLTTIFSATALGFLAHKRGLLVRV
Nature of the test: Inhibition of recombinant human MAO-B assessed as measuring amount of 4-hydroxyquinoline using kynuramine as substrate incubated for 30 mins by fluorescence spectrophotometry.

Test [9] has as its target T5, Acetylcholinesterase (Electrophorus electricus, UniProt O42275). As to the kind of experiment: Inhibition of electric eel AChE incubated for 15 mins using acetylthiocholine as substrate by Ellman's method.
Test [10] in a line: Antioxidant activity assessed as trolox equivalent of ORAC radical scavenging activity by ORAC-FL assay. In kind it is functional.
Test [11] deals with T3, Amine oxidase [flavin-containing] A. As to the kind of experiment: Inhibition of human MAO-A using p-tyramine as substrate preincubated for 15 mins followed by susbtrate addition and measured after 15 mins by HRP and Amplex Red reagent based fluorometric analysis.
Test [12] deals with T4, Amine oxidase [flavin-containing] B. As to the kind of experiment: Inhibition of human MAO-B using p-tyramine as substrate preincubated for 15 mins followed by susbtrate addition and measured after 15 mins by HRP and Amplex Red reagent based fluorometric analysis.
Test [13] concerns the target T5, Acetylcholinesterase. As to the kind of experiment: Inhibition of electric eel AchE preincubated for 30 mins followed by substrate addition using acetylthiocholine iodide as substrate by Ellman's method.
Test [14] addresses T2, Cholinesterase. As to the kind of experiment: Inhibition of human BuchE preincubated for 30 mins followed by substrate addition using butyrylthiocholine iodide as substrate by Ellman's method.
Test [15] concerns the target T4, Amine oxidase [flavin-containing] B. Nature of the test: Inhibition of recombinant human MAO-B using kynuramine as substrate preincubated for 15 mins followed by enzyme addition and further incubated for 20 mins by fluorescence microplate reader analysis.
Test [16] has as its target Amyloid-beta precursor protein (Homo sapiens) (UniProt P05067). Nature of the test: Inhibition of self-induced amyloid beta (1 to 40) (unknown origin) aggregation at 20 uM incubated for 48 hrs by ThT-based fluorimetric assay.
A further test deals with SH-SY5Y. Nature of the test: Neuroprotective activity against H2O2-induced cytotoxicity in human SH-SY5Y cells assessed as increase in cell viability at 10 uM preincubated for 24 hrs followed by H2O2 stimulation and measured after 24 hrs by MTS assay. It counts as functional. The note with it: time 48 hrs.
A short description of test [17]: Antioxidant activity of compound assessed as trolox equivalent of AAPH radical scavenging activity preincubated for 15 mins followed by AAPH addition and measured every 1 min for 60 mins by ORAC-FL assay. Particulars: time 75.0 min. It counts as functional.
Test [18] in a line: Antioxidant activity assessed as DPPH radical scavenging activity at 200 uM incubated for 2 hrs in dark by spectrophotometric analysis. It counts as functional. In general terms: DPPH is a stable violet radical that fades when it is reduced.
Test [19] deals with Acetylcholinesterase (Homo sapiens, UniProt P22303). Nature of the test: Inhibition of human AchE preincubated for 15 mins followed by substrate addition and measured for 5 mins using acetylthiocholine iodide as substrate by DTNB reagent based Ellman's method.
Chain of Acetylcholinesterase (Homo sapiens, UniProt P22303) (P22303 whole entry): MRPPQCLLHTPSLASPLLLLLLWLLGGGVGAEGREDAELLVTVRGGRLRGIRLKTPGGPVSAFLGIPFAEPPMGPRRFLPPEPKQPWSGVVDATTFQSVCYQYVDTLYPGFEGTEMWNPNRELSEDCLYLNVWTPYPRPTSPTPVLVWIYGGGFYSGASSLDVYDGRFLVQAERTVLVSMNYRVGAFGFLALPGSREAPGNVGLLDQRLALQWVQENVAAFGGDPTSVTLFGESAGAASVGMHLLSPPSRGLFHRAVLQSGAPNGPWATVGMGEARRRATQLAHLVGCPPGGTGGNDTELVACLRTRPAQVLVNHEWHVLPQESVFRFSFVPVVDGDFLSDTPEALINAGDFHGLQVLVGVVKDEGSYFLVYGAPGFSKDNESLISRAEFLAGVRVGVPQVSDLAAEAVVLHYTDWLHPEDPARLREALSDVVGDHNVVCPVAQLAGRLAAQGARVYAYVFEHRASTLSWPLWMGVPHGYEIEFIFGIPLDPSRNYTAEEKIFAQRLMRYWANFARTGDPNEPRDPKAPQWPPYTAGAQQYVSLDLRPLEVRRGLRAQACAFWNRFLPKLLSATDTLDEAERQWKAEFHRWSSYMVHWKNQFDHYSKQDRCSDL

pIC50, pKi: −log10 of the molar value. Where only a bound is given, the exact number is not on record here.

T5 sequence (O42275 whole entry): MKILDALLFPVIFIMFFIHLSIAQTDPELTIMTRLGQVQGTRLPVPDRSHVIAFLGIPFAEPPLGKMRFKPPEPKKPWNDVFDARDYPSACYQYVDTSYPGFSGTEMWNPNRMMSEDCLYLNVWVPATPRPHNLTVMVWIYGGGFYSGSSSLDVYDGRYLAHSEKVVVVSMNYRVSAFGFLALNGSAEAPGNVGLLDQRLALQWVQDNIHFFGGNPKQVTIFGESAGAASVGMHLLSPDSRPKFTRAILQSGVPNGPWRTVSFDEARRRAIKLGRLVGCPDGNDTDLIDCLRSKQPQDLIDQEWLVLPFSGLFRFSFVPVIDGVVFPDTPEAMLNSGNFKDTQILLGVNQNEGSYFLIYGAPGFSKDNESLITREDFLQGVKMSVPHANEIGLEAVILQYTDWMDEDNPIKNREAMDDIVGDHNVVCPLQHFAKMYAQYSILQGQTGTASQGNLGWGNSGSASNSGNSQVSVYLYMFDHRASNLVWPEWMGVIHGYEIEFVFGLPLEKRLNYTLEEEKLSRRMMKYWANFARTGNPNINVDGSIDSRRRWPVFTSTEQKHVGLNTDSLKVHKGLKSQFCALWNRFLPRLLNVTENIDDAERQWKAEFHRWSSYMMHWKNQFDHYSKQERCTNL
T1 sequence (P81908 whole entry): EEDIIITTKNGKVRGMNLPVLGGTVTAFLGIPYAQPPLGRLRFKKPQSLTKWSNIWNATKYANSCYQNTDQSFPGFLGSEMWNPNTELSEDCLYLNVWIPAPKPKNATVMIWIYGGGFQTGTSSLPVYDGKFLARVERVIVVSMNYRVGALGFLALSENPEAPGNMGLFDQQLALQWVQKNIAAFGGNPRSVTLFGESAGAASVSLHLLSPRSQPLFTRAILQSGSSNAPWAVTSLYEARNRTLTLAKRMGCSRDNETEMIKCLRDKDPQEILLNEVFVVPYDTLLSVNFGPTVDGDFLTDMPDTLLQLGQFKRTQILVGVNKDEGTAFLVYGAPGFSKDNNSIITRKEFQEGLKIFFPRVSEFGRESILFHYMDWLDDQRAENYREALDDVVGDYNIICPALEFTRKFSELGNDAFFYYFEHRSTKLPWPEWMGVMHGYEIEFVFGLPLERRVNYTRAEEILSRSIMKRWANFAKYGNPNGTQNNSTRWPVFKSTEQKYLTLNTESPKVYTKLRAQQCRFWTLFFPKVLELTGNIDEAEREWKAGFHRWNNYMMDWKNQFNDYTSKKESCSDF

The term pIC50 denotes the IC50 on a negative log10 scale, so that one unit is a factor of ten. Broadly, the inhibition is the share of the control response that was lost under treatment. Regarding `COc1ccc(/C=C/C(=O)Nc2cc[n+](Cc3ccc(F)cc3)cc2)cc1OC.[Br-]`, the pIC50 against Cholinesterase [1] is 8.59; against Cholinesterase [3] it was 8.36. The same compound displayed an inhibition in test [2] of 65.6%. In addition, in the test on PC-12, the Activity is given as 66.6%.

In the case of `COc1cc(/C=C/C(=O)N2CCc3ccccc3C2)ccc1OCCCCN(CNCc1ccccc1)CNCc1ccccc1`, the pIC50 is 5.05 against Cholinesterase [4], 5.20 in test [5], 5.07 in [8] and 4.92 at Acetylcholinesterase [9]. In addition, the inhibition in test [6] was 59.3%; in [7], 43.8%. For the same compound, the Activity in [10] is 0.52 equiv.

As usually defined, the pKi is the negative decadic logarithm of the Ki, by convention in mol/L. A higher pKi goes with a low Ki. On to `COc1ccc(/C=C/C(=O)NCCc2ccccc2)cc1O`, for which the figures for the pKi in test [11] and in [12] were 5.71 and 6.96, respectively.

In the case of `COc1cc(/C=C/C(=O)O[C@H]2C[C@H]3O[C@H](OC(=O)Nc4ccccc4)C[C@H]3O2)ccc1O`, the negative-log IC50 (pIC50) was 4.57 at Acetylcholinesterase [13] and 4.54 against Cholinesterase [14].

As for `O=C(/C=C/c1ccc(O)cc1)OCCc1ccccc1`, the negative logarithm of the IC50 (pIC50) in test [15] was 7.89.

`O=C(NCc1ccccc1)C(c1cc2ccccc2nc1Cl)N(Cc1ccccc1)C(=O)/C=C/c1ccc(O)c(O)c1` (stereo unspecified) came in with an inhibition in test [16] of 62.7%. Further, the Activity is 21.87% in the test with SH-SY5Y, 6.86 equiv in [17] and over 77% in test [18].

`C[N+](C)(C)CCNC(=O)/C=C/c1ccc(O)c(O)c1` showed a pIC50 against Acetylcholinesterase [19] of 5.14.
